Values after ≈ are worked out from the molar mass of the structure shown.
Key:
[1] = Death rates after single intragastric treatment in rats; type: in vivo
[2] = tested on: Plasmodium falciparum W-2 clone (CDC Indochina III); assay: In vitro antimalarial study, [3H]hypoxanthine uptake, W-2 clone; type: cell-based
Method: (§1) B. Antimalarial Activities: (a). In Vitro Antimalarial Studies. The in vitro assays were conducted by using a modification of the semiautomated microdilution technique of Desjardins et al and Chulay et al.. Four P. falciparum malaria parasite clones, from CDC Indochina III (W-2), CDC Sierra Leone I (D-6), Southeast Asia Isolates (TM91C235) and RCS (Isolates from Brazil) were utilized in susceptibility testing. They were derived by direct visualization and micromanipulation from patient isolates. The W-2 clone is susceptible to mefloquine but resistant to chloroquine, sulfadoxine, pyrimethamine, and quinine, whereas the D-6 clone is naturally resistant to mefloquine but susceptible to chloroquine, sulfadoxine, pyrimethamine and quinine. Test compounds were initially dissolved in DMSO and diluted 400 fold in RPMI 1640 culture medium supplemented with 25 mM Hepes, 32 mM NaHCO3 and 10% Albumax I (Gibco BRL, Grand Island, N.Y.). These solutions were subsequently serially diluted two-fold with a Biomek 1000 (Beckman, Fullerton, Calif.) over 11 different concentrations. The parasites were exposed to serial dilutions of each compound for 48 hrs and incubated at 37° C. with 5% O2, 5% CO2 and 90% N2 prior to the addition of [^3H]hypoxanthine. After a further incubation of 18 hrs, parasite DNA was harvested from each microtiter well using Packard Filtermate 196 Harvester (Meriden, Conn.) onto glass filters. Uptake of [^3H]hypoxanthine was measured with a Packard Topcount Scintillation. Concentration-response data were analyzed by a non-linear regression logistic dose response model and the IC50 values (50% inhibitory concentrations) for each compound were calculated. (Table 3). (b). In Vivo Antimalarial Studies against P. berghei in mice: The in vivo efficacy of the artelinic acid analogs were determined in a modified Thompson test. This test measures the survivability of mice and parasitemia clearance following administration of drug on days 3-5 post infection. In brief, 5×10^6 P. berghei-infected erythrocytes (KBG-173 strain) were inoculated intraperitoneally to female mice that weighed 24-30 g. By day three post-infection, parasitemia ranged from 1.0-3.7%. Each drug, dissolved in 5% sodium bicarbonate, was administered PO twice daily from day 3-5 post-infection. Total doses for each drug ranged from 1.5-384 mg/kg with 8 mice included in each dosage group. The percent suppression of parasitemia in the treated mice compared to the untreated controls was determined for each test compound; the SD-50 (fifty percent suppression dose) and SD-90 were determined from a non-linear regression logistic dose response fit at day 6 parasitemia data. Survival of mice to day 60 post-infection was considered a cure (C). Compounds were considered active (A) when the survival time of the treated mice was greater than twice the control mice, i.e., 12-14 day (Table 4-5). (c). Sporozoite Induced Test Each compound is ground with a mortar & pestle and suspended in 0.5% hydroxyethylcellulose—0.1% Tween 80 for compounds to be administered PO and those given SC are suspended in peanut oil. Each compound is prepared at 3 different dose levels as requested by WRAIR. Compounds are administered either PO or SC to mice once 4 hr before inoculation of sporozoites. Four-week-old male CD-1 mice, purchased from Charles River and weighing 16-17 g, are placed 5 per cage and allowed to acclimate for 4 days before being treated and then inoculated with sporozoites. They are fed food and water ad-lib and maintained at 76° F. with 12 hr light and 12 hr darkness. The cages and water bottles are changed biweekly. The mice are weighed on Days 0, 3 and 6 then biweekly when blood films are taken. Plasmodium yoelii (17×) is used to infect mice that will be used to infect the mosquitoes. Mice are given a single dose of test compound 4 hr before being inoculated intraperitoneally with 2.5×10^5 sporozoites of Plasmodium yoelii on Day 0. […]

[3] = tested on: Plasmodium falciparum RCS (Isolates from Brazil); assay: In vitro antimalarial study, [3H]hypoxanthine uptake, RCS clone; type: cell-based; conditions: P. falciparum RCS clone
Method: as §1

[4] = tested on: Plasmodium falciparum D-6 clone (CDC Sierra Leone I); assay: In vitro antimalarial study, [3H]hypoxanthine uptake, D-6 clone; type: cell-based
Method: as §1

Structure (SMILES)	Deaths ([1]; rats n=4, single intragastric 50 mg/kg in 1% CMC suspension)	Deaths ([1]; rats n=4, single intragastric 100 mg/kg in 1% CMC suspension)	Deaths ([1]; rats n=4, single intragastric 200 mg/kg in 1% CMC suspension)	Deaths ([1]; rats n=4, single intragastric 400 mg/kg in 1% CMC suspension)	Deaths ([1]; rats n=4, single intragastric 800 mg/kg in 1% CMC suspension)	Day of Death: number of deaths ([1]; rats, 800 mg/kg, first cell after Deaths (day uncertain))	IC50 W-2 ([2]; P. falciparum W-2 clone) [ng/mL]	IC50 RCS [3] [ng/mL]	IC50 D-6 ([4]; P. falciparum D-6 clone) [ng/mL]	therapeutic index ([1]; rats)	drug-related deaths in rats ([1]; up to 800 mg by a single oral dose)	IC50 ([2]; Plasmodium falciparum, read-out: IC50 W-2) [ng/mL]	IC50 ([3]; Plasmodium falciparum) [ng/mL]	IC50 ([4]; Plasmodium falciparum, read-out: IC50 D-6) [ng/mL]
CCOC(=O)Nc1nc(NC(=O)OCC)c2c(ccc3c2ccn3Cc2ccccc2C(F)(F)F)n1 [Compound 2b]	0/4	0/4	0/4	0/4	1/4	1	127.80 (≈ 255 nM)	>250	7.9727 (≈ 15.9 nM)					
CC(=O)N(C(C)=O)c1nc(N(C(C)=O)C(C)=O)c2c(ccc3c2ccn3Cc2ccccc2C(F)(F)F)n1 [Compound 3e, 1,3-Bis(diacetylamino)-7-(2-trifluoromethyl)benzyl-7H-pyrrolo[3,2-f]quinazoline]										> 160	no drug-related deaths	0.0752 (≈ 0.143 nM)	0.0236 (≈ 0.0449 nM)	0.0236 (≈ 0.0449 nM)
